Laboratory results from PMC9673926, “Nucleotide binding as an allosteric regulatory mechanism for Akkermansia muciniphila β-N-acetylhexosaminidase Am2136” (Gut Microbes, 2022).
Positions count from the first letter of the chain named.

How the values were obtained:
Am2136 WT = molecular target: T1, Am2136 WT (Akkermansia muciniphila, UniProt B2UPR7); test: Nucleotide binding affinity by intrinsic fluorescence
T1 construct: The coding region (residue Q20-L756) of Am2136 without signal peptide was based on UniProt; 6XHis (N); made in house; host or cells: E. coli BL21 (DE3)
T1 sequence (B2UPR7 20-756): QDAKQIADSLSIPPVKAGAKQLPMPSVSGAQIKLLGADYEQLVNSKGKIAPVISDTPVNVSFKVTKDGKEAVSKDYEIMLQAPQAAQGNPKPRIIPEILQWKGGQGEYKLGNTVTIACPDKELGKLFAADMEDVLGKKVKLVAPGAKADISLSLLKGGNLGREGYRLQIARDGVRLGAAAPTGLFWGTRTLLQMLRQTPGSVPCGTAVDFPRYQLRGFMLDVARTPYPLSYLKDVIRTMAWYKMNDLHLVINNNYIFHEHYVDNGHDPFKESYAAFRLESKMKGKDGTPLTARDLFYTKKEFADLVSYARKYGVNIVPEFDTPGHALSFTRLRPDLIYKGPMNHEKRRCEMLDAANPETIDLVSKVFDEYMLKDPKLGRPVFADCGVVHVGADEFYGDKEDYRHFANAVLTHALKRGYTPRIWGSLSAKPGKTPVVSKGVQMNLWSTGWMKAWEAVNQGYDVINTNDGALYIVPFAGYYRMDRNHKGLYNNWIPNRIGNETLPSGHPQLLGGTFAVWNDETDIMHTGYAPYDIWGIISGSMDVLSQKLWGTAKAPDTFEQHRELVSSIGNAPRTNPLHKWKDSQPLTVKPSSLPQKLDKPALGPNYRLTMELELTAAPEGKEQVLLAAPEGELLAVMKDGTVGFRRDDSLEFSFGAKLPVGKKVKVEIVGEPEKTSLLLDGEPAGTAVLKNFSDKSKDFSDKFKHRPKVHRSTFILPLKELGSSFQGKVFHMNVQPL
Method: The nucleotide binding ability was determined on Fluorescence Spectrometer Duetta (HORIBA) by measuring the change of peak intensity. The fluorescence was excited at 286 nm and emitted at 336 nm. And the measurement was processed under 400 V voltage with 2.5 nm excitation slit and 5 nm emission slit. […] The sample was incubated at 4°C for 5 min before testing.

Am2136 Y327F+Y331F = molecular target: T2, Am2136 Y327F+Y331F (Akkermansia muciniphila, UniProt B2UPR7, Y327F/Y331F); test: GDP regulated enzyme activity assay, mutant; conditions: 1 mM GDP, substrate pNP-β-GlcNAc
T2 sequence (B2UPR7 20-756 Y327F/Y331F): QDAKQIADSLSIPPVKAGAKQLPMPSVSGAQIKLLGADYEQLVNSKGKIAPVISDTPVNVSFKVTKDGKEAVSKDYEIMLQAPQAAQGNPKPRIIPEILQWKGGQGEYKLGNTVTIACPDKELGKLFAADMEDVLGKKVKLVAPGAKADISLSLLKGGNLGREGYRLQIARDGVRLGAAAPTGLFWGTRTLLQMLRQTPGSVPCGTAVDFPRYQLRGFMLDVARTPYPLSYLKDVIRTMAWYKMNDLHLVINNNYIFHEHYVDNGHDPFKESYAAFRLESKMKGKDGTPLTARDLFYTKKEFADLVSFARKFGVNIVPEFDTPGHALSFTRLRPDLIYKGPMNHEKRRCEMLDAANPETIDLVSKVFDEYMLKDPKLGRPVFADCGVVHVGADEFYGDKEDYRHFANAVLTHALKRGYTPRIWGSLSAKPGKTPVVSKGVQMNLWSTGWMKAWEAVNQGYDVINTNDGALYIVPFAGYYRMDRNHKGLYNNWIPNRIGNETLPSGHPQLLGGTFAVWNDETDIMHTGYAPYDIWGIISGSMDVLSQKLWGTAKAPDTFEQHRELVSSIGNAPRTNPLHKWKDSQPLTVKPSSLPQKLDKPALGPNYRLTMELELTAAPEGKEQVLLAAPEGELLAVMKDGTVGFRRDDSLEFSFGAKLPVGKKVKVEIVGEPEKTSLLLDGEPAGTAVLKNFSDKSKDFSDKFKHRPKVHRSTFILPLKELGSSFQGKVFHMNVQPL

Am2136 R256A = molecular target: T3, Am2136 R256A (Akkermansia muciniphila, UniProt B2UPR7, R256A); test: Nucleotide binding affinity by intrinsic fluorescence, mutant; parameters: The coding region (residue Q20-L756) of Am2136 without signal peptide was based on UniProt; 6XHis (N); made in house; host or cells: E. coli BL21 (DE3)
T3 sequence (B2UPR7 20-756 R256A): T2 sequence (B2UPR7 20-756 Y327F/Y331F) with R237A, F308Y, F312Y
Method: The nucleotide binding ability was determined on Fluorescence Spectrometer Duetta (HORIBA) by measuring the change of peak intensity. The fluorescence was excited at 286 nm and emitted at 336 nm. And the measurement was processed under 400 V voltage with 2.5 nm excitation slit and 5 nm emission slit. The 120 μL reaction mixture contains 0–550 μM nucleotide, 5 μM proteins, 25 mM Tris pH 8.0 and 150 mM NaCl. The sample was incubated at 4°C for 5 min before testing.

In the case of `Nc1nc2c(ncn2[C@@H]2O[C@H](COP(=O)(O)OP(=O)(O)O)[C@@H](O)[C@H]2O)c(=O)[nH]1` [GDP], the Kd (Am2136 WT; Am2136 WT, fluorescence ex 286 nm/em 336 nm) is reported as 116 µM, the Kd (Am2136 WT; WT dialyzed (EDTA treated)) is reported as 114 ± 5.22 µM and the Kd (Am2136 WT; WT dialyzed + Ca^2+) is reported as 117 ± 4.37 µM. For the same compound, the Kd (Am2136 WT; WT dialyzed + Mg^2+) was 118 ± 5.85 µM, the Vmax (Am2136 Y327F+Y331F) was 473 ± 6 µmol/min and the Kd (Am2136 R256A) was 158 ± 10.9 µM.
